According to US6262023A, “WD-40 derived peptides and uses thereof” (The Board of Trustees of the Leland Stanford Junior …, priority 1995, dated 2001):
“Also recorded” adds a separate entry of the source.

How the values were obtained:
δ and εPKC isozymes = test: PKC isozyme translocation and degradation in cardiac myocytes; assay type: cell-based, rat
Description: This peptide-induced translocation was followed by degradation of δ and εPKC isozymes.

[1] = tested on: PKC-mediated germinal vesicle breakdown (GVBD) in Xenopus oocytes; test: PKC-mediated Xenopus oocyte maturation (germinal vesicle breakdown, GVBD) after peptide microinjection; assay type: cell-based
Method: Exposure to insulin induces maturation in Xenopus oocytes via a PKC-dependent pathway (Smith, et al., 1992). The maturation response may be quantified by monitoring the appearance of a white spot in the animal hemisphere of the oocyte, indicating germinal vesicle breakdown (GVBD) and maturation. To assess the effects of RACK1 WD-40-derived peptides on insulin-induced PKC-mediated maturation, 50 nl of a 20 mM NaCl solution containing the indicated peptides [peptide I (SEQ ID NO:1; .circle-solid.), peptide rVI (SEQ ID NO:7; .box-solid.), or injection solution (.quadrature.)] […] One hour following the peptide injections, the oocytes were exposed to a solution containing insulin (8.25 μg/ml) for 2 minutes (t=0). 10-15 oocytes were used for each sample.
The data, representative of three independent experiments, are expressed as the percent of oocytes with GVBD following insulin exposure and are plotted as a function of time in FIG. 5.

βPKC [2] = molecular target: T1, βPKC (Rattus norvegicus, UniProt P68403); test: Sensitivity of βPKC to Arg-C endopeptidase (nicking); assay type: biochemical; parameters: All the solutions contained 5 nM rat brain PKC in peptide overlay buffer; from tissue; host or cells: rat brain; details: 2.5 μg/ml PS and 50 μM CaCl2; peptide 10 μM; Arg-C 5 units/ml
Description: Upon activation of PKC, a pseudosubstrate autoinhibitory sequence at the N-terminus of the molecule dissociates from the catalytic site and becomes sensitive to endopeptidase Arg-C (Orr, et al.). In the absence of PKC activators, exposure of the 80 kDa βPKC to endopeptidase Arg-C has no effect on the enzyme (see FIG. 7, lane 1). In the presence of the PKC activators PS, DG and calcium, however, exposure of βPKC to Arg-C results in a "nicking" of the PKC (i.e. limited proteolysis generating a 78 kDa fragment and several small fragments (see FIG. 7, lane 2)). Continued exposure to Arg-C results in the disappearance of βPKC (Orr, et al.). The present experiment tests whether peptides derived from the WD-40 region of RACK1 alter the sensitivity of βPKC to endopeptidase Arg-C.
The methods used to assay Arg-C sensitivity are a modification of methods described by Orr, et al. Rat brain PKC (~5 nM) was incubated at room temperature in 500 μl of 20 mM Tris-HCl buffer (pH 7.5) alone or with Arg-C (5 units/ml) in the presence or absence of the indicated peptides (final concentration 10 μM or as indicated), PS, DG, and calcium (as indicated). 50 μl aliquots were removed into 20 μl of sample buffer during the reaction as indicated (samples in all the lanes were incubated for 30 minutes, except lanes 5, and 6, which were incubated for 5 and 15 minutes, respectively). The samples were boiled for 10 minutes at 80° C. and loaded onto 8% SDS-PAGE. βPKC was detected by Western blot analysis using anti-βPKC antibodies as described in Examples 6 and 8.
PKC was incubated for the indicated time alone (lane 1) or in the presence of Arg-C (lanes 2-9), with DG (0.8 μg/ml), PS (50 μg/ml) and CaCl2 (1 mM; lane 2), with PS (50 μg/ml) and CaCl2 (1 mM; lane 3), with PS (2.5 μg/ml) and CaCl2 (50 μM; lane 4); with PS (2.5 μg/ml), CaCl2 (50 μM) and with either peptide rVI (SEQ ID NO:7; 10 μM; lanes 5-7), control peptide (SEQ ID NO: 9; lane 8) or with peptide I (SEQ ID) NO:1; lane 9).

PKC [3] = test: PKC autophosphorylation; assay type: biochemical, rat; details: 10 μM peptide; no PS, DG, calcium
Method: Rat brain PKC (~10 nM) was incubated with mild agitation in a final volume of 250 μl of overlay buffer, as in Example 1 either with anti-βPKC pseudosubstrate antibodies (1:10 dilution, Life Technologies, Gaithersburg, Md.) or with the indicated peptide (10 μM). Where indicated, PS (50 μg/ml), DG (0.8 μg/ml) and CaCl2 (1 mM) were also added. The amount of autophosphorylation was determined after 2 hours for the reaction with the anti-pseudosubstrate antibodies, or after 15 minutes for the other samples. 50 μl of a buffer comprised of 20 mM Tris-HCl (pH 7.5), 20 mM MgCl2, 20 μM ATP and 5 μci/ml [γ-^32 P]ATP. The mixture was incubated for 15 minutes at room temperature and the reaction was stopped by adding 60 μl sample buffer (see Example 9). The samples were then boiled for 10 minutes, loaded onto a 10% SDS-PAGE mini gel and electrophoresed. The gel was fixed with 50% methanol and 10% acetic acid for 1 hour, and the autophosphorylation of PKC was determined by autoradiography.

βPKC [4] = molecular target: T1, βPKC; test: Overlay assay: binding of PKC to immobilized recombinant RACK1; parameters: from tissue; host or cells: PKC from rat brain; RACK1 made in-house in TB1 E. coli (pMAL-c2)
Method: (§1) Purified recombinant RACK1 protein (100-250 μg per lane, produced as detailed in Example 2) was subjected to SDS/PAGE and blotted onto nitrocellulose membranes (Ausubel). The nitrocellulose membranes were cut into strips, which were incubated for 0.5 hr in overlay buffer (Example 1) in the presence or absence of a mixture of PKC isozymes (α, β, γ, ε and .zeta., ~10 nM each final concentration) and PKC activators (60 μg/ml phosphatidylserine (PS), 2 μg/ml diacylglycerol (DG), and 1 mM CaCl2). Unbound material was removed by five washes, 5-min each, in overlay wash buffer. Where indicated, PKC activators were present during the incubation of PKC with the nitrocellulose strips. The conditions for each sample and corresponding results are presented in part D below.
PKC bound to RACK1 immobilized on nitrocellulose strips was detected as follows. […]
The concentration dependence of PKC binding to RACK1 was characterized with βPKC, since this isozyme is a major component of the PKC mixture used for the overlay assay. The mean half maximal binding was ~0.375 nM, and maximal binding was ~4 nM (n=3; values reflect binding of βPKC isozyme in the presence of other PKC isozymes and was determined by scanning autoradiograms in the linear range of detection, as described in Mochly-Rosen, et al., (1991).

PKC binding to RACK1 = test: Overlay / overlay-extraction assay: inhibition of PKC binding to recombinant RACK1 by peptides; parameters: species or system rat; details: for inhibition of the binding of PKC to RACK1, peptides rI-rVII: overlay assay, concentration not given
Method: as §1
The variation in the overlay protocol consisted of incubating the putative binding peptides with a mixture of PKC isozymes for 15 minutes at room temperature before the mixture was used to contact the nitrocellulose strips containing immobilized RACK1.
Nitrocellulose strips containing immobilized RACK1, that had been contacted with a solution containing a mixture of PKC isozymes, were washed and the area corresponding to the 36 kDa (RACK1-containing) band was cut out. The pieces (containing PKC/RACK1 complexes) were incubated with sample buffer for 10 minutes at 80° C. The sample buffer and the nitrocellulose pieces were then placed in wells in the PAGE gel and subjected to SDS-PAGE to elute the bound proteins. The gel was blotted onto nitrocellulose and a Western blot analysis was carried out using the mixture of antibodies (specific for PKC α, β, γ, δ, ε and .zeta. isozymes) described in Example 1 part B. Bound antibodies were detected by ^125 I-protein A.
Peptides derived from or homologous to WD-40 repeats of RACK1 were tested for their ability to inhibit PKC binding to recombinant RACK1. Binding of PKC to RACK1 was carried out using a variation of the overlay procedure described in Example 3 part B. In the experimental samples, peptides were incubated with a solution containing a mixture of rat brain PKC isozymes (~10 nM each) for 15 minutes at room temperature.
Following completion of the modified overlay protocol, the samples were subjected to the overlay-extraction protocol detailed in part B, above.

PKC [5] = test: Histone type IIIs phosphorylation by PKC; assay type: biochemical; details: peptide rVI 10 μM; PKC ~10 nM
Method: Histone type IIIs (Sigma Chemical Company, St. Louis, Mo.) was phosphorylated by PKC (~10 nM) in the absence (lane 1) and presence of peptide rVI (10 μM) (lanes 2 and 3) and in the presence and absence of DG (0.8 μg/ml), PS (50 μg/ml) and CaCl2 (1 mM) (lane 3). The results are expressed as percentage of control that is the amount of Histone phosphorylation by PKC in the presence of DG (0.8 μg/ml), PS (50 μg/ml) and CaCl2 (1 mM). The results are the average±SEM of two independent experiments. PKC was first incubated with the peptide rVI (10 μM) for 15 minutes in overlay buffer as described above. Histone type IIIs (40 μg/ml) was added in Tris-HCl (20 mM), MgCl2 (20 mM), ATP (20 μM) and [γ-^32 P]ATP (5 μci/ml) with or without PS (50 μg/ml), DG (0.8 μg/ml) and CaCl2 (1 mM). Histone phosphorylation was determined by autoradiography as above.

[6] = 50 μM peptide microinjected, insulin 8.25 μg/ml
[7] = peptide introduced into cardiac myocytes

NC[C@H](O)c1ccc(O)c(O)c1 [norepinephrine, reference compound]
translocation of δ and εPKC isozymes from the cytosolic to the particulate fraction (δ and εPKC isozymes; NE, 2 μM): causes translocation of δ and εPKC isozymes from the cytosolic to the particulate fraction

control peptide: control peptide (SEQ ID NO:9) used as negative control (LKGKIL) [reference compound]
delay to onset of maturation after exposure to insulin [1, 6]: 4 to 5 h | time at which plateau of GVBD is reached [1, 6]: 10 to 12 h | plateau of % GVBD following insulin exposure ([1]; 50 nl of 50 μM peptide microinjected, insulin 8.25 μg/ml): 85-90 % GVBD | nicking of βPKC by Arg-C (78 kDa fragment) at low concentrations of activators (βPKC [2]): nicking of βPKC did not occur | induction of PKC autophosphorylation in the absence of PKC activators (PKC [3]): Neither peptide I nor control peptide induced PKC autophosphorylation

maltose binding protein
binding of PKC to control proteins (βPKC [4]): did not bind PKC

peptide rI: synthetic peptide based on the corresponding region in WD-40 repeat I of RACK1 (VTQIATT)
inhibition of the binding of PKC to RACK1, peptides rI-rVII (PKC binding to RACK1): effective inhibitors

peptide rII: synthetic peptide based on the corresponding region in WD-40 repeat II of RACK1 (FVSDVVI)
inhibition of the binding of PKC to RACK1, peptides rI-rVII (PKC binding to RACK1): effective inhibitors

peptide rIII: seven amino acid peptide identical to a segment of RACK1 WD-40 repeat III (DVLSVAF)
effect on insulin-induced oocyte maturation ([1]; peptide microinjected (rVI 50 μM; rIII 50 and 500 μM)): enhances insulin-induced oocyte maturation; also recorded: potentiated the effects of insulin on oocyte maturation | fraction of oocytes exposed to insulin that reach maturation ([1]; peptide microinjected, insulin): ~100% | effect on NE-induced translocation of PKC isozymes (δ and εPKC isozymes; norepinephrine 2 μM, peptide introduced into cardiac myocytes): further enhanced | degradation of δ and εPKC isozymes (δ and εPKC isozymes; [7]): followed by degradation of these activated isozymes | translocation / distribution of δ and εPKC isozymes in the absence of hormone stimulation (δ and εPKC isozymes; [7]): caused an immediate translocation of δ and εPKC isozymes | induction of PKC-mediated histone phosphorylation in the absence of PS, DG and calcium (PKC [5]): similarly induced histone phosphorylation | nicking of βPKC by Arg-C (78 kDa fragment) at low concentrations of activators (βPKC [2]): resulted in the appearance of the 78 kDa nicked PKC fragment | relative effectiveness in inhibiting PKC binding to RACK1 (PKC binding to RACK1; 10 μM peptide): somewhat more effective than peptide rVI | inhibition of PKC binding to RACK1 (FIG. 3) (PKC binding to RACK1; 10 μM peptide preincubated with PKC): inhibit the binding of PKC to RACK1 | inhibition of the binding of PKC to RACK1, peptides rI-rVII (PKC binding to RACK1): inhibited the binding of PKC to RACK1

peptide rV: synthetic peptide based on the corresponding region in WD-40 repeat V of RACK1 (GYLNTVT)
inhibition of the binding of PKC to RACK1, peptides rI-rVII (PKC binding to RACK1): lesser inhibitory effect

peptide rVII: synthetic peptide based on the corresponding region in WD-40 repeat VII of RACK1 (PQCTSLA)
inhibition of the binding of PKC to RACK1, peptides rI-rVII (PKC binding to RACK1): no inhibition

rIV: synthetic peptide based on the corresponding region in WD-40 repeat IV of RACK1 (VSCVRFS)
inhibition of the binding of PKC to RACK1, peptides rI-rVII (PKC binding to RACK1): lesser inhibitory effect
